{"source": "paper PMC5498157", "about": "(Chemical research in toxicology, 2017)", "key": {"[1]": {"target": "T1, ALKBH3 (Homo sapiens, UniProt Q96Q83)", "T1 sequence (Q96Q83 1-286)": "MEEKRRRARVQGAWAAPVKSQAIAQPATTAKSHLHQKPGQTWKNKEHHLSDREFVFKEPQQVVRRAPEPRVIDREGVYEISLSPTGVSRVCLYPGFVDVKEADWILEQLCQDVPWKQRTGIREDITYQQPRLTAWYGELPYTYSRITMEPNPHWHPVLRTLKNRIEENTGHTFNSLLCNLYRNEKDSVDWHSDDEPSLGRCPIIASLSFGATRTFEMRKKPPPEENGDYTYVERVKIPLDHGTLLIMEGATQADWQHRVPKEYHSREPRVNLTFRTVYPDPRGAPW", "assay": "Inhibition constant", "assay_type": "biochemical", "settings": "versus αKG, 37 °C"}, "[2]": {"target": "T2, AlkB (Escherichia coli, UniProt P05050)", "T2 sequence (P05050 whole entry)": "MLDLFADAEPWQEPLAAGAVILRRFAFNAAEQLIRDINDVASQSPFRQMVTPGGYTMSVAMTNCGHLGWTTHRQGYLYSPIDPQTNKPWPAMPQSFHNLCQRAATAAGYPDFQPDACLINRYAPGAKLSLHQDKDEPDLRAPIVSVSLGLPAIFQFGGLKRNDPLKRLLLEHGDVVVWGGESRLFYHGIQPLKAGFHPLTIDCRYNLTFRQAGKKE", "assay": "Inhibition constant", "assay_type": "biochemical"}, "[3]": {"target": "T3, ALKBH2 (Homo sapiens, UniProt Q6NS38)", "T3 sequence (Q6NS38 1-261)": "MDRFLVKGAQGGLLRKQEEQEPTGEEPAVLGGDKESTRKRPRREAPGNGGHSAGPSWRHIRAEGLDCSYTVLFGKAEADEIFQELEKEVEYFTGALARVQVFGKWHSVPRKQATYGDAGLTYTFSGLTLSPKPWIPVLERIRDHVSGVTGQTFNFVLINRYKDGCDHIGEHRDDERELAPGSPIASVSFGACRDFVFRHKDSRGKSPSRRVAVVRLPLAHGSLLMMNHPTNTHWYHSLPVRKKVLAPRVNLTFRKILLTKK", "settings": "37 °C"}, "[4]": {"target": "T1, ALKBH3", "settings": "37 °C"}, "[5]": {"target": "T2, AlkB", "settings": "37 °C"}, "[6]": {"target": "T3, ALKBH2", "assay": "Inhibition constant", "assay_type": "biochemical", "settings": "for Ki: versus αKG, 37 °C"}, "[7]": {"target": "T3, ALKBH2", "assay": "Inhibition of ALKBH2 repair at tumor-relevant 2HG:αKG ratios", "assay_type": "biochemical", "settings": "L-2HG:αKG = 28:1, αKG 100 µM; range over all substrates"}, "[8]": {"target": "T1, ALKBH3", "assay": "Inhibition of ALKBH3 repair at tumor-relevant 2HG:αKG ratios", "assay_type": "biochemical", "settings": "L-2HG:αKG = 28:1, αKG 100 µM; range over all substrates"}, "[9]": {"tested_on": "ALKBH2 and ALKBH3", "assay_type": "biochemical, human", "settings": "L-2HG:αKG = 28:1, αKG 100 µM; range over both enzymes and all substrates"}, "[10]": {"settings": "AlkB, ds-m1A, versus αKG, 37 °C"}, "[11]": {"settings": "AlkB, ds-m3C, versus αKG, 37 °C"}, "[12]": {"settings": "AlkB, ss-m1A, versus αKG, 37 °C"}, "[13]": {"settings": "AlkB, ss-m3C, versus αKG, 37 °C"}}, "note": "Read-outs that look alike come from different tables or passages of the source."}
{"smiles": "O=C(O)CC[C@@H](O)C(=O)O", "note": "[D-2HG, D-2-hydroxyglutarate]", "values": [{"measurement": "Ki", "setting": "[1]; ALKBH3, ss-m1A", "result": "545 ± 77", "unit": "µM"}, {"measurement": "Ki", "setting": "[1]; ALKBH3, ss-m3C", "result": "490 ± 46", "unit": "µM"}, {"measurement": "Ki", "setting": "[2]; [10]", "result": "529 ± 126", "unit": "µM"}, {"measurement": "Ki", "setting": "[2]; [11]", "result": "230 ± 55", "unit": "µM"}, {"measurement": "Ki", "setting": "[2]; [12]", "result": "571 ± 166", "unit": "µM"}, {"measurement": "Ki", "setting": "[2]; [13]", "result": "447 ± 113", "unit": "µM"}]}
{"smiles": "O=C(O)CCC(=O)C(=O)O", "note": "[αKG, α-ketoglutarate]", "values": [{"measurement": "Km", "setting": "[3]; ALKBH2, ds-m1A", "result": "7.3 ± 0.9", "unit": "µM"}, {"measurement": "kcat", "setting": "[3]; ALKBH2, ds-m1A", "result": "0.0417 ± 0.0017", "unit": "s⁻¹"}, {"measurement": "Km", "setting": "[3]; ALKBH2, ds-m3C", "result": "1.9 ± 0.4", "unit": "µM"}, {"measurement": "kcat", "setting": "[3]; ALKBH2, ds-m3C", "result": "0.0433 ± 0.0017", "unit": "s⁻¹"}, {"measurement": "Km", "setting": "[3]; ALKBH2, ss-m1A", "result": "4.1 ± 0.9", "unit": "µM"}, {"measurement": "kcat", "setting": "[3]; ALKBH2, ss-m1A", "result": "0.0183 ± 0.0017", "unit": "s⁻¹"}, {"measurement": "Km", "setting": "[3]; ALKBH2, ss-m3C", "result": "1.4 ± 0.2", "unit": "µM"}, {"measurement": "kcat", "setting": "[3]; ALKBH2, ss-m3C", "result": "0.0283 ± 0.0017", "unit": "s⁻¹"}, {"measurement": "Km", "setting": "[4]; ALKBH3, ss-m1A", "result": "2.3 ± 0.1", "unit": "µM"}, {"measurement": "kcat", "setting": "[4]; ALKBH3, ss-m1A", "result": "0.02 ± 0", "unit": "s⁻¹"}, {"measurement": "Km", "setting": "[4]; ALKBH3, ss-m3C", "result": "1.9 ± 0.4", "unit": "µM"}, {"measurement": "kcat", "setting": "[4]; ALKBH3, ss-m3C", "result": "0.0283 ± 0", "unit": "s⁻¹"}, {"measurement": "Km", "setting": "[5]; ds-m1A", "result": "12.7 ± 1.3", "unit": "µM"}, {"measurement": "kcat", "setting": "[5]; ds-m1A", "result": "0.08 ± 0.0033", "unit": "s⁻¹"}, {"measurement": "Km", "setting": "[5]; ds-m3C", "result": "10.8 ± 1.9", "unit": "µM"}, {"measurement": "kcat", "setting": "[5]; ds-m3C", "result": "0.137 ± 0.0067", "unit": "s⁻¹"}, {"measurement": "Km", "setting": "[5]; ss-m1A", "result": "7.1 ± 1.1", "unit": "µM"}, {"measurement": "kcat", "setting": "[5]; ss-m1A", "result": "0.07 ± 0.0033", "unit": "s⁻¹"}, {"measurement": "Km", "setting": "[5]; ss-m3C", "result": "19.9 ± 1.3", "unit": "µM"}, {"measurement": "kcat", "setting": "[5]; ss-m3C", "result": "0.408 ± 0.012", "unit": "s⁻¹"}]}
{"smiles": "O=C(O)CNC(=O)C(=O)O", "note": "[N-OG, N-oxalylglycine, reference compound]", "values": [{"measurement": "Ki", "setting": "[6]; ALKBH2, ds-m1A", "result": "16 ± 5", "unit": "µM"}, {"measurement": "Ki", "setting": "[6]; ALKBH2, ds-m3C", "result": "7 ± 2", "unit": "µM"}, {"measurement": "Ki", "setting": "[6]; ALKBH2, ss-m1A", "result": "30 ± 7", "unit": "µM"}, {"measurement": "Ki", "setting": "[6]; ALKBH2, ss-m3C", "result": "40 ± 7", "unit": "µM"}, {"measurement": "potency relative to D- and L-2HG", "setting": "[6]; from Ki values, all repair reactions", "result": "about 10 times"}, {"measurement": "Ki", "setting": "[1]; Ki, ALKBH3, ss-m1A", "result": "27 ± 4", "unit": "µM"}, {"measurement": "Ki", "setting": "[1]; Ki, ALKBH3, ss-m3C", "result": "37 ± 3", "unit": "µM"}, {"measurement": "Ki", "setting": "[2]", "result": "2 ± 1.3", "unit": "µM"}, {"measurement": "Ki", "setting": "[2]; Ki, AlkB, ds-m3C, versus αKG, 37 °C", "result": 0.2, "unit": "µM"}, {"measurement": "Ki", "setting": "[2]; Ki, AlkB, ss-m1A, versus αKG, 37 °C", "result": "0.4 ± 0.1", "unit": "µM"}, {"measurement": "Ki", "setting": "[2]; Ki, AlkB, ss-m3C, versus αKG, 37 °C", "result": "0.4 ± 0.1", "unit": "µM"}]}
{"smiles": "O=C(O)CC[C@H](O)C(=O)O", "note": "[L-2HG, L-2-hydroxyglutarate]", "values": [{"measurement": "Ki", "setting": "[1]; ALKBH3, ss-m1A", "result": "185 ± 23", "unit": "µM"}, {"measurement": "Ki", "setting": "[1]; ALKBH3, ss-m3C", "result": "228 ± 16", "unit": "µM"}, {"measurement": "Ki", "setting": "[2]; [10]", "result": "598 ± 173", "unit": "µM"}, {"measurement": "Ki", "setting": "[2]; [11]", "result": "308 ± 108", "unit": "µM"}, {"measurement": "Ki", "setting": "[2]; [12]", "result": "337 ± 99", "unit": "µM"}, {"measurement": "Ki", "setting": "[2]; [13]", "result": "276 ± 111", "unit": "µM"}, {"measurement": "inhibition of ALKBH2 activity", "setting": "[7]", "result": "48–58%"}, {"measurement": "inhibition of ALKBH3 activity", "setting": "[8]", "result": "31–40%"}, {"measurement": "inhibition of ALKBH2 and ALKBH3 repair activities", "setting": "[9]", "result": "31–58%"}]}
